Common to all, as to test: NCI-60 cell line screen, 48 h
Test [1] has as its system KM12.
The subject of test [2] is DU-145.
Test [3] deals with OVCAR-8.
Test [4] deals with SN12C.
Test [5] concerns NCI-H226.
The subject of test [6] is MOLT-4.
Test [7] deals with LOX IMVI.
The test system of test [8] is OVCAR-5.
In test [9] the test system is HL-60.
The subject of test [10] is NCI/ADR-RES.
In test [11] the test system is MDA-N.
The test system of test [12] is SK-MEL-28.
The test system of test [13] is EKVX.
Test [14] relates to SK-MEL-2.
For test [15], the system named is HOP-62.
Test [16] relates to SR.
Test [17] concerns RPMI-8226.
For test [18], the system named is RXF 393.
Test [19] has as its system CAKI-1.
The subject of test [20] is OVCAR-4.

The record followed here is ChEMBL document CHEMBL1201862, “PubChem BioAssay data set” (2004).

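A five-concentration, 48-hour dose response in 96-well plates underlies each endpoint, interpolated linearly between surrounding concentrations. Here, GI50 denotes the concentration required for 50% inhibition of growth.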 Activity calls are given as the source filed them. Cut-off read from the data, not from the text of the source: active = GI50 up to about 1.1 µM and inactive = higher.

With `COc1ccc2c(c1)-c1nn(CCN(C)C)c3ccc(C(=O)NCCCN(C)CCCNC(=O)c4ccc5c6c(c7cc(OC)ccc7nc46)NN5CCN(C)C)c(c13)N2`, the GI50 in [1] is 0.0284 µM (active); in test [2] it was 0.0284 µM (active); in test [3], 0.0133 µM (active); in test [4], 0.0225 µM (active); in test [5] it was 0.155 µM (active); in [6], < 0.01 µM (active). The GI50 in [7] was 0.0192 µM (active); in test [8], 0.126 µM (active); in [9], 0.204 µM (active); in test [10] it was 1.7 µM (inactive); in test [11], 0.0361 µM (active); in test [12], 0.0561 µM (active). Besides, the GI50 in test [13] is 0.143 µM (active); in test [14] it was 0.0184 µM (active); in test [15], 0.0318 µM (active); in test [16], 0.127 µM (active); in [17], 0.0105 µM (active); in [18], 0.0366 µM (active). For the same compound, the GI50 was 0.346 µM (active) in test [19] and 0.0352 µM (active) in test [20].

Consider `CC(C)(C)CC(C)(C)N/C(N)=N/O`, for which the GI50 is > 100 µM (inactive) in test [1]; > 100 µM (inactive) in test [2]; > 80 µM (inactive) in test [3]; > 100 µM (inactive) in test [4]; 58.5 µM (inactive) in test [5]; > 100 µM (inactive) in test [6]. The GI50 in test [7] was > 100 µM (inactive); in test [8], > 100 µM (inactive); in [9], > 55.7 µM (inactive); in test [10] it was 97.3 µM (inactive); in test [11] it was > 100 µM (inactive); in [12] it was > 100 µM (inactive). The GI50 in test [13] was > 89.5 µM (inactive); in [14] it was > 100 µM (inactive); in [15], > 100 µM (inactive); in test [16], > 81.5 µM (inactive); in [17], > 100 µM (inactive); in test [18] it was > 100 µM (inactive). Besides, the GI50 in test [19] is > 100 µM (inactive); in test [20] it was > 37.4 µM (inactive).

As to `CC(C)(C)OC(=O)NC1CCCCC1NC(=O)C(=O)NC1CCCCC1NC(=O)OC(C)(C)C` (stereo not given), the GI50 in [1], in [2], in test [3], in test [4], in test [5] and in test [6] was > 100 µM (inactive) in each case. The GI50 in test [7], in test [8], in [9], in test [10], in test [11] and in test [12] was > 100 µM (inactive) in each case. Also, the GI50 in test [13] is > 100 µM (inactive); in test [14] it was 59 µM (inactive); in test [15] it was 19.3 µM (inactive); in [16], > 100 µM (inactive); in [17], > 100 µM (inactive); in test [18] it was 9.46 µM (inactive). For the same compound, the GI50 in test [19] is 43 µM (inactive); in test [20], > 100 µM (inactive).

Turning to `CCOP(=O)(CCC(O)CNc1nc(N)nc(Cl)c1/N=N/c1ccc(Cl)cc1)OCC` (stereo not given), the GI50 in test [1] was 19.1 µM (inactive); in test [2], 14.2 µM (inactive); in test [3], 17.7 µM (inactive); in [4], 17.2 µM (inactive); in test [5], 16.6 µM (inactive); in [6], 6.95 µM (inactive). The GI50 was 8.67 µM (inactive) in test [7]; 17.6 µM (inactive) in test [8]; 3.5 µM (inactive) in test [9]; 11.5 µM (inactive) in test [10]; 12.4 µM (inactive) in test [11]; 11.6 µM (inactive) in test [12]. The GI50 in [13] was 18.8 µM (inactive); in [14], 11.6 µM (inactive); in test [15] it was 12.5 µM (inactive); in [16] it was 7.87 µM (inactive); in test [17] it was 8.47 µM (inactive); in test [18] it was 6.31 µM (inactive). For the same compound, the values for the GI50 in test [19] and in test [20] were 2.96 µM (inactive) and 5.24 µM (inactive), respectively.

With `COc1ccc2c(c1)[C@@H](NC(C)=O)CCc1cc(OC)c(OC)c(OC)c1-2`, the GI50 in test [1] was 0.0131 µM (active); in [2] it was 0.0185 µM (active); in [3], 0.0157 µM (active); in test [4], 0.02 µM (active); in test [5], 0.0891 µM (active); in [6], 0.0206 µM (active). Moreover, the GI50 in [7] is 0.018 µM (active); in [8] it was 1.5 µM (inactive); in test [9], < 0.012 µM (active); in [10], 0.0198 µM (active); in test [11], 0.0128 µM (active); in [12] it was < 0.017 µM (active). Further, the GI50 in test [13] is 8.34 µM (inactive); in test [14], 0.0174 µM (active); in test [15], 0.0216 µM (active); in test [16], 0.0834 µM (active); in [17], 0.0206 µM (active); in test [18], 0.0151 µM (active). The GI50 is 0.0206 µM (active) in [19] and 9.84 µM (inactive) in test [20].

`CS(=O)(=O)OCCCCOS(C)(=O)=O` [BUSULFAN]: the GI50 in [1] is > 250 µM (inactive); in [2], 220 µM (inactive); in test [3], 237 µM (inactive); in test [4], 233 µM (inactive); in test [5] it was 237 µM (inactive); in [6], 124 µM (inactive). Also, the GI50 was 221 µM (inactive) in test [7]; > 250 µM (inactive) in [8]; 125 µM (inactive) in test [9]; 217 µM (inactive) in test [10]; 209 µM (inactive) in test [11]; 203 µM (inactive) in test [12]. The GI50 in [13] was > 201 µM (inactive); in [14], 248 µM (inactive); in [15] it was 187 µM (inactive); in test [16] it was 87.9 µM (inactive); in test [17], 237 µM (inactive); in [18], 182 µM (inactive). Besides, the GI50 in test [19] is 161 µM (inactive); in test [20] it was 214 µM (inactive).
